Paper PMC8464809, “Anticancer and Structure Activity Relationship of Non-Symmetrical Choline Kinase Inhibitors” (Pharmaceutics, 2021)

What was measured:
human ChoKα1 = biological target: T1, human ChoKα1 (Homo sapiens, UniProt P35790); experiment: Inhibition of purified ChoKα1: incorporation of 14C from [methyl-14C]choline into phosphocholine; assay type: biochemical; conditions: purified ChoKα1, 1 mM choline, 10 mM ATP, 37 °C, 10 min; read-out: IC50 hChoKα1
T1 construct: made in house
Description: The effect of compounds 3a–h and 4a–h on ChoKα1 was assayed in purified ChoKα1 as previously described, by determining the rate of incorporation of ^14C from [methyl-^14C]choline into phosphocholine, both in the absence (control) or presence of different inhibitor concentrations. Briefly, 20 ng of purified ChoKα1 were incubated with 1 mM [methyl-^14C]choline (4500 dpm/nmol) in 100 mM Tris-HCl (pH 8.5), 10 mM MgCl2, 10 mM ATP, and incubated at 37 °C for 10 min. The reaction was stopped by immersing the reaction tubes in boiling water for 3 min. Aliquots of the reaction were applied to the origin of silica gel plates in the presence of phosphocholine (0.1 mg) and choline (0.1 mg) as carriers. The chromatography was developed in methanol/0.6% NaCl/28% NH4OH in water (50:50:5, v/v/v) as a solvent, and phosphocholine was visualized under exposure to iodine vapor. The corresponding spot was scraped and transferred to scintillation vials for measurement of radioactivity by a Beckman 6000-TA (Madrid, Spain) liquid-scintillation counter. The 50% inhibitory concentrations (IC50 value) were determined from the % activity of the enzyme at different concentrations of synthetic inhibitor using a sigmoidal dose-response curve (the ED50plus v1.0 software).

HT-29 cells = experiment: Antiproliferative MTT assay, HT-29; assay type: cell-based; conditions: Homo sapiens, 72 h
Description: (§1) Human cervix carcinoma (HeLa) and human breast cancer (MCF-7) were grown in the DMEM medium (Gibco, Milan, Italy). B-acute lymphoblastic leukemia (RS4;11), T-acute lymphoblastic leukemia (CCRF-CEM and Jurkat), human promyelocytic cells (HL-60), and human colon adenocarcinoma (HT-29) cells were grown in RPMI medium (Gibco, Milan, Italy). Both media were supplemented with 115 units/mL of penicillin G (Gibco, Milan, Italy), 115 μg/mL of streptomycin (Invitrogen, Milan, Italy), and 10% FBS (Invitrogen, Milan, Italy). Cell lines were tested for mycoplasma contamination every 6 months by the RT-PCR analysis. Stock solutions (10 mM) of the different compounds were obtained by dissolving them in DMSO. Individual wells of 96-well tissue-culture microtiter plates were inoculated with 100 μL of complete medium containing 5 × 10^3 adherent cells or 25 × 10^3 leukemia cells. The plates were incubated at 37 °C in a humidified 5% CO2 incubator for 18 h prior to the experiments. After medium removal, 100 μL of fresh medium containing the test compound at different concentrations was added to each well and incubated at 37 °C for 72 h.

HeLa cells = experiment: Antiproliferative MTT assay, HeLa; assay type: cell-based; conditions: Homo sapiens, 72 h
Description: as §1

MCF-7 cells = experiment: Antiproliferative MTT assay, MCF-7; assay type: cell-based; conditions: Homo sapiens, MCF7, 72 h
Description: as §1

CCRF-CEM cells = experiment: Antiproliferative MTT assay, CCRF-CEM; assay type: cell-based; conditions: Homo sapiens, 72 h
Description: as §1

HL-60 cells = experiment: Antiproliferative MTT assay, HL-60; assay type: cell-based, human; conditions: for GI50: Homo sapiens, HL-60, 72 h, MTT
Description: as §1

RS4;11 cells = experiment: Antiproliferative MTT assay, RS4;11; assay type: cell-based; conditions: Homo sapiens, 72 h
Description: as §1

[1] = Cytotoxicity in resting peripheral blood lymphocytes (MTT); assay type: cell-based; conditions: human, PBL not stimulated with PHA, healthy donors, read-out: GI50 PBLresting
Description: (§2) Additional experiments were conducted with peripheral blood lymphocytes (PBL) from healthy donors obtained as described previously. For cytotoxicity evaluations in proliferating PBL cultures, non-adherent cells were resuspended at 5 × 10^5 cells/mL in a growth medium containing 2.5 µg/mL PHA (Irvine Scientific). Different concentrations of the test compounds were added, and viability was determined 72 h later by the MTT test. For cytotoxicity evaluations in resting PBL cultures, non-adherent cells were resuspended (5 × 10^5 cells/mL) and treated for 72 h with the test compounds, as described above.

[2] = Cytotoxicity in PHA-stimulated peripheral blood lymphocytes (MTT); assay type: cell-based; conditions: human, PBL stimulated with PHA, healthy donors, read-out: GI50 PBLPHA
Description: as §2

Jurkat cells = experiment: Apoptosis by annexin-V/PI flow cytometry; assay type: cell-based, human; conditions: after 24 h of treatment, concentration dependent
Description: Jurkat cells were treated with the test compounds and after different times stained with both PI, to stain DNA, and annexin V-fluorescein isothiocyanate, to stain membrane PS exposed on the cell surface, following the instructions of the manufacturer (Roche Diagnostics) of the Annexin-V-Fluos reagent.

[3] = tested on: HT-29, HeLa, MCF-7, CCRF-CEM, HL-60, and RS4;11cells; experiment: Antiproliferative MTT assay, panel of six human tumor cell lines; assay type: cell-based; conditions: HL-60, RS4;11, 72 h
Description: as §1

[4] = tested on: choline uptake in HepG2 cells; experiment: Choline uptake assay; assay type: cell-based; conditions: Homo sapiens, 10 min preincubation with the compound
Description: Choline uptake was determined as previously reported. Briefly, HepG2 cells (200,000 cells/well) were incubated for 10 min at 37 °C either in a medium containing different concentrations of ChoKα1 inhibitors or only with the medium as controls. The medium was then removed and the cells were immediately exposed to a medium containing [methyl-^14C]choline (16 μM, 31 Ci/mol) for 10 min at 37 °C. The incorporation of choline was stopped by medium aspiration followed by two washes with ice-cold PBS containing 580 μM choline. The cells were solubilized in NaOH 0.1 N and an aliquot was used to determine the total amount of radiolabel taken up by the cells.

T1 sequence (P35790 whole entry): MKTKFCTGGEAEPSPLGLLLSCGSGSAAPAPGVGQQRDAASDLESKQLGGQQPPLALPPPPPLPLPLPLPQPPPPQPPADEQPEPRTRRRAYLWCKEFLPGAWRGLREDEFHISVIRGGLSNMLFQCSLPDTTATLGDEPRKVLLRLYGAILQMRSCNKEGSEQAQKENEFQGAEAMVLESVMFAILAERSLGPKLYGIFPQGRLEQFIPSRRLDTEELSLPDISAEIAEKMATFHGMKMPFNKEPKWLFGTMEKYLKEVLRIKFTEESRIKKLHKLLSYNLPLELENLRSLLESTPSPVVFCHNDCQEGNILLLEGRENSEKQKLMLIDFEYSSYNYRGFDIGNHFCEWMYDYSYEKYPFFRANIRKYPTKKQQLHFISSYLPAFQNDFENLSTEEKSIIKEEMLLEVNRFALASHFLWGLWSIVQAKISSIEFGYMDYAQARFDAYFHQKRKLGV

Row | IC50 (human ChoKα1) [µM] | GI50 (HT-29 cells) [µM] | GI50 (HeLa cells) [µM] | GI50 (MCF-7 cells) [µM] | GI50 (CCRF-CEM cells) [µM] | GI50 (HL-60 cells) [µM] | GI50 (RS4;11 cells) [µM] | GI50 values, range over six cell lines [3] [nM] | SMILES | fold more potent than MN-48b (HL-60 cells; against HL-60 leukemic cells, MN-48b ref 23) [fold] | GI50 at 72 h [1] [µM] | GI50 at 72 h [2] [µM] | apoptotic cells (annexin-V/PI) (Jurkat cells) | IC50 [4] [µM]
1 | 6.33 ± 0.8 | 26.1 ± 6.7 | 8.2 ± 2.4 | 23.6 ± 5.1 | 1.2 ± 0.5 | 38.7 ± 6.2 | 53.6 ± 13.4 |  | CN(C)c1cc[n+](Cc2ccc(COc3cccc(N)c3)cc2)cc1 [Compound 3e] |  |  |  |  | 
2 | 4.29 ± 0.12 | 2.2 ± 0.9 | 1.2 ± 0.2 | 4.3 ± 0.9 | 0.4 ± 0.26 | 1.6 ± 0.9 | 2.6 ± 0.2 |  | CN(C)c1cc[n+](Cc2ccc(CCc3ccc(COc4cccc(N)c4)cc3)cc2)cc1 [Compound 3g] |  |  |  |  | 
3 | 3.36 ± 0.17 | 5.8 ± 1.9 | 0.39 ± 0.12 | 2.8 ± 0.5 | 0.086 ± 0.03 | 0.33 ± 0.074 | 0.71 ± 0.16 |  | Oc1cccc(NCc2ccc(CCCCc3ccc(C[n+]4ccc(N5CCCC5)cc4)cc3)cc2)c1 [Compound 4d] |  |  |  |  | 
4 | 3.34 ± 0.34 | 49.7 ± 11.4 | 12.8 ± 2.6 | 17.8 ± 5.3 | 7.3 ± 2.5 | 4.1 ± 1.2 | 24.5 ± 2.9 |  | Oc1cccc(NCc2ccc(C[n+]3ccc(N4CCCC4)cc3)cc2)c1 [Compound 4a] |  |  |  |  | 
5 | > 50 | 36 ± 7.4 | 4.8 ± 0.58 | 22.8 ± 4.3 | 3.4 ± 0.7 | 4.8 ± 0.4 | 16.8 ± 4.8 |  | Nc1cccc(OCc2ccc(C[n+]3ccc(N4CCCC4)cc3)cc2)c1 [Compound 3a] |  |  |  |  | 
6 | 3.85 ± 0.1 | 6.6 ± 2.3 | 2.1 ± 0.4 | 4.4 ± 0.5 | 0.5 ± 0.1 | 1.1 ± 0.3 | 2.8 ± 0.6 |  | Oc1cccc(NCc2ccc(-c3ccc(C[n+]4ccc(N5CCCC5)cc4)cc3)cc2)c1 [Compound 4b] |  |  |  |  | 
7 | 8.56 ± 0.94 | 0.63 ± 0.14 | 0.068 ± 0.028 | 0.3 ± 0.1 | 0.03 ± 0.003 | 0.011 ± 0.005 | 0.15 ± 0.012 | 630 to 11 | Nc1cccc(OCc2ccc(CCc3ccc(C[n+]4ccc(N5CCCC5)cc4)cc3)cc2)c1 [Compound 3c] | 30 | > 10 | > 10 | significant increase of apoptotic cells | 
8 | 3.66 ± 0.11 | 5.2 ± 1.7 | 1.7 ± 0.2 | 2.4 ± 0.2 | 0.7 ± 0.1 | 0.25 ± 0.066 | 1.1 ± 0.3 |  | CN(C)c1cc[n+](Cc2ccc(CCc3ccc(CNc4cccc(O)c4)cc3)cc2)cc1 [Compound 4g] |  |  |  |  | 
9 | 6.39 ± 0.46 | 4.4 ± 0.7 | 4.2 ± 0.5 | 7.6 ± 1.6 | 0.54 ± 0.21 | 2.4 ± 0.7 | 2 ± 0.5 |  | CN(C)c1cc[n+](Cc2ccc(-c3ccc(COc4cccc(N)c4)cc3)cc2)cc1 [Compound 3f] |  |  |  |  | 
10 | 17.5 ± 1.24 |  |  |  |  |  |  |  | Nc1cccc(OCc2ccc(-c3ccc(C[n+]4ccc(N5CCCC5)cc4)cc3)cc2)c1 [Compound 3b] |  |  |  |  | 
11 | 2.82 ± 0.16 | 23.8 ± 8.2 | 12.4 ± 1.8 | 6.7 ± 1.5 | 8.4 ± 1.6 | 4 ± 0.9 | 31 ± 2.6 |  | CN(C)c1cc[n+](Cc2ccc(CNc3cccc(O)c3)cc2)cc1 [Compound 4e] |  |  |  |  | 
12 |  | 3.6 ± 1.4 | 0.7 ± 0.1 | 2.2 ± 1 | 0.16 ± 0.034 | 0.37 ± 0.079 | 0.5 ± 0.08 |  | CN(C)c1cc[n+](Cc2ccc(CCCCc3ccc(CNc4cccc(O)c4)cc3)cc2)cc1 [Compound 4h] |  |  |  |  | 
13 | 6.79 ± 0.47 | 0.58 ± 0.17 | 0.16 ± 0.048 | 0.5 ± 0.2 | 0.015 ± 0.005 | 0.12 ± 0.091 | 0.29 ± 0.053 |  | Nc1cccc(OCc2ccc(CCCCc3ccc(C[n+]4ccc(N5CCCC5)cc4)cc3)cc2)c1 [Compound 3d] |  |  |  |  | 15.8 ± 0.24
14 | 7.01 ± 0.13 |  |  |  |  |  |  |  | CN(C)c1cc[n+](Cc2ccc(CCCCc3ccc(COc4cccc(N)c4)cc3)cc2)cc1 [Compound 3h] |  |  |  |  | 
15 | 3.83 ± 0.91 | 5.3 ± 2.1 | 0.86 ± 0.26 | 1.7 ± 0.4 | 0.14 ± 0.03 | 0.065 ± 0.023 | 0.46 ± 0.061 |  | Oc1cccc(NCc2ccc(CCc3ccc(C[n+]4ccc(N5CCCC5)cc4)cc3)cc2)c1 [Compound 4c] |  |  |  |  | 
16 |  | 13.2 ± 5 | 3.6 ± 0.4 | 5 ± 1 | 1.1 ± 0.4 | 1.3 ± 0.4 | 3.7 ± 0.4 |  | CN(C)c1cc[n+](Cc2ccc(-c3ccc(CNc4cccc(O)c4)cc3)cc2)cc1 [Compound 4f] |  | 7.6 ± 1.1 | 3.6 ± 0.8 | significant increase of apoptotic cells | 3.5 ± 0.07
